Tested on: Klebsiella pneumoniae
Assay: Broth microdilution antimicrobial susceptibility testing (AST) of patient isolates, 96-well plate read for turbidity
Assay type: cell-based
Conditions: clinical patient isolate plates, 24 hours at 37° C, plate ID 1 (AM), 5 (A/S), 8 (MPM); for Diagnostician Decision (drug susceptibility interpretation): expert diagnostician visual reading (gold standard); for Automated System Decision (drug susceptibility interpretation): mobile phone-based AST plate reader, misdiagnosed cases
Description: To determine whether a particular well 22 contains sufficient turbidity or not, a threshold-based approach is used to determine the cut-off transmittance value for each well 22. As the turbidity increases, the light transmittance through the well decreases. This operation is illustrated as operation 230 in FIGS. 4 and 5. In particular, thresholding is applied to average normalized well intensities of sample-containing wells to determine whether a particular well 22 is classified as “turbid” or “not turbid.” To choose an accurate threshold value for each well 22, the normalized transmittance values of wells 22 with no turbidity are extracted from a training set of blank reference plates 20 (i.e., plates with drugs but no microbes). For example, sixty (60) such plates that are blanks can be imaged to determine the mean transmittance at each well 22. […] In one embodiment, from this set of normalized transmittance values from wells 22 with no turbidity, a threshold of two times the standard deviation below the mean of that particular well 22 is used to determine whether a given test or sample-containing well 22 is statistically likely to have microbial growth represented by turbidity. Those wells 22 that have an averaged, normalized intensity level that is lower than two times the standard deviation below the mean “not turbid” value are classified as “turbid” while wells 22 that don't meet that criteria are classified as “not turbid.” Of course, other measures may be used for defining the cutoff or threshold. For example, fractional standard deviation may also be used for a cutoff or threshold. In addition, the threshold could also include a numerical cutoff of intensity or other multiple of the standard deviation.
With reference to FIG. 3, after the wells 22 are classified as “turbid” or “not turbid,” the software 112 generates MIC values and susceptibility characterizations for the drug(s) on the AST plate 20. For a given type of AST plate 20 (i.e., Gram-negative or Gram-positive), the MIC value for each drug is determined by finding the lowest concentration of drug in a drug-specific set of wells 22 that contains no turbidity. More specifically, the MIC value is based on the adjacent, well 22 that is classified as not turbid as this well represents the lowest concentration of antibiotic that prevented bacterial growth (i.e. the MIC). Depending on the selected microbe of interest, drug susceptibility interpretations are automatically made by the software 112 based on the MIC for each drug. FIG. 7 illustrates the layout of a map or table 114 for the AST plate 20 with susceptibility characterizations for each drug at different concentration levels. The map or table 114 with susceptibility characterizations for each drug at different concentration levels may be stored in a database (e.g., database 109 or other local storage device) as a look-up table or the like. In some embodiments, the map or table 114 for each different bacterium may be stored in the database 109 or local storage device. For example, in looking at FIG. 7 with the example of the drug ampicillin (AM), various concentrations (μg/ml) of this drug is present within wells B1, C1, D1, E1 along with a growth medium. If wells B1 and C1 were classified as turbid while wells D1 and E1 were classified as not turbid, the MIC reading would be 16 μg/ml (e.g., looking at concentration in well D1). Likewise, the susceptibility characterization would be classified as “indeterminate” using the map or table 114. […]

Molecule | Diagnostician Decision (drug susceptibility interpretation) | Automated System Decision (drug susceptibility interpretation)
CC1(C)S[C@@H]2[C@H](NC(=O)[C@H](N)c3ccccc3)C(=O)N2[C@H]1C(=O)O [AM, Ampicillin] | Indeterminate | Resistant
C[C@@H](O)[C@H]1C(=O)N2C(C(=O)O)=C(S[C@@H]3CN[C@H](C(=O)N(C)C)C3)[C@H](C)[C@H]12 [MPM, Meropenem] | Susceptible | Resistant
Ampicillin-Sulbactam [A/S] | Indeterminate | Resistant

Reference: patent US11697833B2, “Antimicrobial susceptibility testing device and method for use with portable electronic device” (THE REGENTS OF THE UNIVERSITY OF CALIFORNIA, priority 2016, dated 2023)
